In brackets after ≈: the same amount, converted by molar mass.
Columns and labels:
[1] = system: S. aureus Oxford; experiment: MIC by agar dilution, S. aureus Oxford; assay type: cell-based; settings: Staphylococcus aureus, Diagnostic Sensitivity Test, inoculum 10^4 CFU/spot
Excerpt: (§1) The antibacterial activity is described in terms of the minimum inhibitory concentration (MIC) determined by the agar-dilution technique with an inoculum size of 10^4 CFU/spot.

[2] = system: E. coli DCO; experiment: MIC by agar dilution, E. coli DCO; assay type: cell-based; settings: Escherichia coli, Diagnostic Sensitivity Test, inoculum 10^4 CFU/spot
Excerpt: as §1

[3] = system: P. morganii I + 001; experiment: MIC by agar dilution, P. morganii I + 001; assay type: cell-based; settings: Morganella morganii, Diagnostic Sensitivity Test, inoculum 10^4 CFU/spot
Excerpt: as §1

[4] = system: Enterobacter cloacae P99-; experiment: MIC by agar dilution, Enterobacter cloacae P99-; assay type: cell-based
Excerpt: as §1

[5] = system: B. fragilis AMP S; experiment: MIC by agar dilution, B. fragilis AMP S; assay type: cell-based; settings: Bacteroides fragilis, Diagnostic Sensitivity Test, inoculum 10^4 CFU/spot
Excerpt: as §1

[6] = system: bacteria; settings: cited from earlier work

Structure (SMILES): C[C@@H](O)[C@H]1C(=O)N2C(C(=O)O)=C(S[C@@H]3CN[C@H](C(=O)Nc4ccc(C(=O)O)cn4)C3)[C@H](C)[C@H]12 [Example 4, (1R,5R,6S,8S,2'S,4'S)-2-(2-(5-Carboxy-2-pyridylcarbamoyl)pyrrolidin-4-ylthio)-6-(1-hydroxyethyl)-1-methylcarbapenem-3-carboxylic acid]
- MIC [1]: 0.13 µg/mL (≈ 0.273 µM)
- MIC [2]: 0.02 µg/mL (≈ 0.042 µM)
- MIC [3]: 0.02 µg/mL
- MIC [4]: 0.02 µg/mL (≈ 0.042 µM)
- MIC [5]: 0.25 µg/mL (≈ 0.525 µM)

Structure (SMILES): C[C@@H](O)[C@H]1C(=O)N2C(C(=O)O)=C(SCCN=CN)C[C@H]12 [imipenem, N-formimidoyl thienamycin]
- antibacterial activity [6]: broad spectrum of antibacterial activity
